# System: male Sprague Dawley rats
# Assay: Pig‐a assay
# Type: in vivo, rat
# [1] = 1-Month Study, 250 mg/kg/day, Day 15
# [2] = 1-Month Study, 250 mg/kg/day, Day 29
# [3] = 1-Month Study, 250 mg/kg/day, Day -1 (pre-treatment)
# [4] = 1-Month Study, 500 mg/kg/day, Day 15
# [5] = 1-Month Study, 500 mg/kg/day, Day 29
# [6] = 1-Month Study, 500 mg/kg/day, Day -1 (pre-treatment)
# [7] = 1-Month Study, 1,000 mg/kg/day Days 1-29, Day 57 recovery group
# [8] = 1-Month Study, 1,000 mg/kg/day, Day 15
# [9] = 1-Month Study, 1,000 mg/kg/day, Day 29
# [10] = 1-Month Study, 1,000 mg/kg/day, Day -1 (pre-treatment)
# [11] = 2-Week Study, 250 mg/kg/day Days 1-15, Day 16
# [12] = 2-Week Study, 500 mg/kg/day Days 1-15, Day 16
# [13] = 2-Week Study, 1,000 mg/kg/day Days 1-15, Day 16
# [14] = 3-Day Study, 500 mg/kg/day Days 1-3, Day 15
# [15] = 3-Day Study, 500 mg/kg/day Days 1-3, Day 30
# [16] = 3-Day Study, 500 mg/kg/day Days 1-3, Day 45
# [17] = 3-Day Study, 500 mg/kg/day, Day -4 (pre-treatment)
# [18] = 3-Day Study, 1,000 mg/kg/day Days 1-3, Day 15
structure (smiles),measurement,setting,value
"CC(=O)Nc1ccc(O)cc1 [acetaminophen, Acetaminophen]",%RETs mean ± SD,[1],3.7 ± 0.7%
same,Number of CD59‐Neg RBCs per 10^6 RBCs mean ± SD,[1],0.6 ± 0.4 per 10^6 RBCs
same,Number of CD59‐Neg RETs per 10^6 RETs mean ± SD,[1],1.8 ± 2.8 per 10^6 RETs
same,%RETs mean ± SD,[2],2.9 ± 0.4%
same,Number of CD59‐Neg RBCs per 10^6 RBCs mean ± SD,[2],0.9 ± 0.3 per 10^6 RBCs
same,Number of CD59‐Neg RETs per 10^6 RETs mean ± SD,[2],3.0 ± 2.2 per 10^6 RETs
same,%RETs mean ± SD,[3],5.2 ± 0.6%
same,Number of CD59‐Neg RBCs per 10^6 RBCs mean ± SD,[3],0.7 ± 0.8 per 10^6 RBCs
same,Number of CD59‐Neg RETs per 10^6 RETs mean ± SD,[3],0.6 ± 0.6 per 10^6 RETs
same,%RETs mean ± SD,[4],3.2 ± 0.5%
same,Number of CD59‐Neg RBCs per 10^6 RBCs mean ± SD,[4],0.3 ± 0.2 per 10^6 RBCs
same,Number of CD59‐Neg RETs per 10^6 RETs mean ± SD,[4],1.0 ± 1.0 per 10^6 RETs
same,%RETs mean ± SD,[5],2.0 ± 0.4 %
same,Number of CD59‐Neg RBCs per 10^6 RBCs mean ± SD,[5],0.5 ± 0.1 per 10^6 RBCs
same,Number of CD59‐Neg RETs per 10^6 RETs mean ± SD,[5],1.7 ± 1.9 per 10^6 RETs
same,%RETs mean ± SD,[6],5.5 ± 1.3 %
same,Number of CD59‐Neg RBCs per 10^6 RBCs mean ± SD,[6],0.3 ± 0.1 per 10^6 RBCs
same,Number of CD59‐Neg RETs per 10^6 RETs mean ± SD,[6],0.6 ± 0.7 per 10^6 RETs
same,%RETs mean ± SD,[7],2.8 ± 0.6%
same,Number of CD59‐Neg RBCs per 10^6 RBCs mean ± SD,[7],0.9 ± 0.5 per 10^6 RBCs
same,Number of CD59‐Neg RETs per 10^6 RETs mean ± SD,[7],0.5 ± 0.4 per 10^6 RETs
same,%RETs mean ± SD,[8],2.8 ± 1.4%
same,Number of CD59‐Neg RBCs per 10^6 RBCs mean ± SD,[8],0.6 ± 0.4 per 10^6 RBCs
same,Number of CD59‐Neg RETs per 10^6 RETs mean ± SD,[8],1.6 ± 1.5 per 10^6 RETs
same,%RETs mean ± SD,[9],2.4 ± 0.9%
same,Number of CD59‐Neg RBCs per 10^6 RBCs mean ± SD,[9],1.6 ± 1.6 per 10^6 RBCs
same,Number of CD59‐Neg RETs per 10^6 RETs mean ± SD,[9],4.5 ± 5.9 per 10^6 RETs
same,%RETs mean ± SD,[10],4.6 ± 0.6%
same,Number of CD59‐Neg RBCs per 10^6 RBCs mean ± SD,[10],0.5 ± 0.3 per 10^6 RBCs
same,Number of CD59‐Neg RETs per 10^6 RETs mean ± SD,[10],0.7 ± 0.7 per 10^6 RETs
same,%RETs mean ± SD,[11],2.7 ± 1.0%
same,Number of CD59‐Neg RBCs per 10^6 RBCs mean ± SD,[11],0.7 ± 0.3 per 10^6 RBCs
same,Number of CD59‐Neg RETs per 10^6 RETs mean ± SD,[11],1.4 ± 1.1 per 10^6 RETs
same,%RETs mean ± SD,[12],2.4 ± 0.8 %
same,Number of CD59‐Neg RBCs per 10^6 RBCs mean ± SD,[12],1.1 ± 1.7 per 10^6 RBCs
same,Number of CD59‐Neg RETs per 10^6 RETs mean ± SD,[12],0.4 ± 0.4 per 10^6 RETs
same,%RETs mean ± SD,[13],3.4 ± 0.7%
same,Number of CD59‐Neg RBCs per 10^6 RBCs mean ± SD,[13],0.5 ± 0.3 per 10^6 RBCs
same,Number of CD59‐Neg RETs per 10^6 RETs mean ± SD,[13],1.1 ± 0.9 per 10^6 RETs
same,%RETs mean ± SD,[14],3.6 ± 0.6%
same,Number of CD59‐Neg RBCs per 10^6 RBCs mean ± SD,[14],0.4 ± 0.2 per 10^6 RBCs
same,Number of CD59‐Neg RETs per 10^6 RETs mean ± SD,[14],0.9 ± 0.7 per 10^6 RETs
same,%RETs mean ± SD,[15],3.1 ± 0.2%
same,Number of CD59‐Neg RBCs per 10^6 RBCs mean ± SD,[15],0.5 ± 0.3 per 10^6 RBCs
same,Number of CD59‐Neg RETs per 10^6 RETs mean ± SD,[15],1.2 ± 1.2 per 10^6 RETs
same,%RETs mean ± SD,[16],2.7 ± 0.4%
same,Number of CD59‐Neg RBCs per 10^6 RBCs mean ± SD,[16],0.4 ± 0.2 per 10^6 RBCs
same,Number of CD59‐Neg RETs per 10^6 RETs mean ± SD,[16],0.7 ± 1.3 per 10^6 RETs
same,%RETs mean ± SD,[17],3.3 ± 0.8%
same,Number of CD59‐Neg RBCs per 10^6 RBCs mean ± SD,[17],0.4 ± 0.2 per 10^6 RBCs
same,Number of CD59‐Neg RETs per 10^6 RETs mean ± SD,[17],2.0 ± 2.1 per 10^6 RETs
same,%RETs mean ± SD,[18],4.8 ± 0.8 %
same,Number of CD59‐Neg RBCs per 10^6 RBCs mean ± SD,[18],0.6 ± 0.2 per 10^6 RBCs
same,Number of CD59‐Neg RETs per 10^6 RETs mean ± SD,[18],1.8 ± 2.4 per 10^6 RETs
same,%RETs mean ± SD,"3-Day Study, 1,000 mg/kg/day Days 1-3, Day 30",3.3 ± 0.4%
